We go through two molecules from US8394408B2, “Gastric retentive extended-release dosage forms comprising combinations of a non-opioid analgesic and an opioid analgesic” (Depomed, Inc., priority 2008, dated 2013).

Structures are written as SMILES.

Data set [1] can be described thus: Oxycodone degradation (DHOXY/OXY), effect of binder, 40° C., 75% RH open dish 8 days. The class given is physicochemical.
The conditions of data set [2]: cited from earlier work.

With `COc1ccc2c3c1O[C@H]1C(=O)CC[C@@]4(O)[C@@H](C2)N(C)CC[C@]314.Cl` [oxycodone HCl], the “DHOXY/OXY (%), Physical Blend” value in data set [1] (40° C., 75% RH, open-dish 8 days) worked out at 0.07%; in data set [1] (t = 0), 0.07%. `COc1ccc2c3c1O[C@H]1C(=O)CC[C@H]4[C@@H](C2)N(C)CC[C@]314.O=C(O)C(O)C(O)C(=O)O` [hydrocodone bitartrate]: the Solubility in water in data set [2] is 62.5 mg/mL.
